From patent US12060347B2 (BRISTOL-MYERS SQUIBB COMPANY, priority 2016, dated 2024)

molecular target: T1, human PAR4 (Homo sapiens, UniProt Q96RI0); assay: PAR4 FLIPR assay: antagonism of agonist-peptide-induced calcium mobilization in PAR4-expressing HEK293 cells; type: cell-based; conditions: H-Ala-Phe(4-F)-[…]NH2-induced intracellular calcium mobilization, 11-point curves
T1 construct: expressed in transfected cells; host or cells: HEK293 PAR4 Clone 1.2A (BMS Arctic ID 383940)
T1 sequence (Q96RI0 18-385): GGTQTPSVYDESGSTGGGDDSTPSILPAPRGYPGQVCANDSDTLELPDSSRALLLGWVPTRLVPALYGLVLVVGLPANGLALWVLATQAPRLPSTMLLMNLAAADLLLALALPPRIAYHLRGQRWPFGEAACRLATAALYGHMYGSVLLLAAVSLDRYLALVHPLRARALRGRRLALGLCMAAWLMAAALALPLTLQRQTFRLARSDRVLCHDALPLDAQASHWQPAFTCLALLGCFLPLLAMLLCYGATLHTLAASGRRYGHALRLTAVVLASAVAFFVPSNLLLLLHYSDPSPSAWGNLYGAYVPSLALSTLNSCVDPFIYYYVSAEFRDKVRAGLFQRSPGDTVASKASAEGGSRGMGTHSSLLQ

IC50 | SMILES
3.2 nM | COc1cnc2c(-c3nc4c(C)cc(OCCOC(=O)Nc5ccnc(C)c5)cc4s3)cc(CO)cc2n1 [Example 129, 2-(2-(7-(hydroxymethyl)-2-methoxyquinoxalin-5-yl)-4-methylbenzo[d]thiazol-6-yloxy)ethyl 2-methylpyridin-4-ylcarbamate]
2 nM | COc1cnc2c(-c3nc4cc(F)c(O[C@@H](C)[C@@H](C)OC(=O)Nc5ccc(C(N)=O)nc5)cc4s3)cc(C)cc2n1 (stereo in doubt) [Example 391, (2R,3S)-3-((5-fluoro-2-(2-methoxy-7-methylquinoxalin-5-yl)benzo[d]thiazol-6-yl)oxy)butan-2-yl (6-carbamoylpyridin-3-yl)carbamate]
0.8 nM | COCc1cnc2c(-c3nc4c(C)cc(OC(F)(F)F)cc4s3)cc(C)cc2n1 [Example 262, 2-(2-(methoxymethyl)-7-methylquinoxalin-5-yl)-4-methyl-6-(trifluoromethoxy)benzo[d]thiazole]
15 nM | COc1cnc2c(-c3nc4c(CO)c(C)c(OC)cc4s3)cc(C)cc2n1 [Example 301]
0.7 nM | COc1cnc2c(-c3nc4cc(F)c(OCCOC(=O)Nc5ccc6[nH]c(=O)oc6c5)cc4s3)cc(C)cc2n1 [Example 343, 2-((5-fluoro-2-(2-methoxy-7-methylquinoxalin-5-yl)benzo[d]thiazol-6-yl)oxy)ethyl (2-oxo-2,3-dihydrobenzo[d]oxazol-6-yl)carbamate]
2200 nM | Cc1cc(-c2cc3ccccc3o2)c2ncc(-c3ccoc3)nc2c1 [Example 135, 5-(benzofuran-2-yl)-2-(furan-3-yl)-7-methylquinoxaline]
2.4 nM | COc1cnc2c(-c3nc4c(C(O)C5(C(F)(F)F)CCC5)cc(OC)cc4s3)cc(Cl)cc2c1 (stereo not drawn) [Example 656, (2-(6-chloro-3-methoxyquinolin-8-yl)-6-methoxybenzo[d]thiazol-4-yl)(1-(trifluoromethyl)cyclobutyl)methanol]
4.6 nM | COc1ccc(NC(=O)O[C@H](C)[C@H](C)Oc2cc3sc(-c4cc(Cl)cc5nc(OC)cnc45)nc3cc2F)cn1 [Example 821, (2R,3S)-3-((2-(7-chloro-2-methoxyquinoxalin-5-yl)-5-fluorobenzo[d]thiazol-6-yl)oxy)butan-2-yl (6-methoxypyridin-3-yl)carbamate]
32 nM | COCc1cnc2c(-c3cc4ccccc4o3)cc(C)cc2n1 [Example 195, 5-(benzofuran-2-yl)-2-(methoxymethyl)-7-methylquinoxaline]
4.6 nM | COc1cnc2c(-c3nc4cc(F)c(OC[C@@H](C)OC(=O)Nc5ccc(C(=O)NCC(C)(C)CO)nc5)cc4s3)cc(C)cc2n1 [Example 472, (R)-1-((5-fluoro-2-(2-methoxy-7-methylquinoxalin-5-yl)benzo[d]thiazol-6-yl)oxy)propan-2-yl (6-((3-hydroxy-2,2-dimethylpropyl)carbamoyl)pyridin-3-yl)carbamate]
1.4 nM | COc1cnc2c(-c3nc4cc(F)c(O[C@@H](C)[C@@H](C)OC(=O)Nc5ccnc(C(=O)NCC(C)(C)O)c5)cc4s3)cc(C)cc2n1 [Example 465, (2R,3S)-3-((5-fluoro-2-(2-methoxy-7-methylquinoxalin-5-yl)benzo[d]thiazol-6-yl)oxy)butan-2-yl (2-((2-hydroxy-2-methylpropyl)carbamoyl)pyridin-4-yl)carbamate]
77 nM | COc1cnc2c(-c3nc4c(Cl)c(F)c(OCCN(C)C(=O)Nc5cnc(C)nc5)cc4s3)cc(C)cc2n1 [Example 520, 1-(2-((4-chloro-5-fluoro-2-(2-methoxy-7-methylquinoxalin-5-yl)benzo[d]thiazol-6-yl)oxy)ethyl)-1-methyl-3-(2-methylpyrimidin-5-yl)urea]
1.7 nM | COc1cnc2c(-c3nc4cc(F)c(O[C@@H](C)[C@@H](C)OC(=O)Nc5cnc(CO)nc5)cc4s3)cc(C)cc2n1 [Example 502, (2R,3S)-3-((5-fluoro-2-(2-methoxy-7-methylquinoxalin-5-yl)benzo[d]thiazol-6-yl)oxy)butan-2-yl (2-(hydroxymethyl)pyrimidin-5-yl)carbamate]
0.7 nM | COCc1cnc2c(-c3nc4c(C(O)c5ccccc5)cc(OC)cc4s3)cc(C)cc2n1 (stereo not drawn) [Example 161, (6-methoxy-2-(2-(methoxymethyl)-7-methylquinoxalin-5-yl)benzo[d]thiazol-4-yl) (phenyl)methanol]
3.3 nM | COc1cnc2c(-c3nc4cc(F)c(O[C@@H](C)[C@@H](C)OC(=O)Nc5cnc(CCO)nc5)cc4s3)cc(Cl)cc2c1 [Example 579, (2R,3S)-3-((2-(6-chloro-3-methoxyquinolin-8-yl)-5-fluorobenzo[d]thiazol-6-yl)oxy)butan-2-yl (2-(2-hydroxyethyl)pyrimidin-5-yl)carbamate]
580 nM | COc1cc(C)c2nc(-c3cc(C)cc4nc(CN(C)C)cnc34)sc2c1 [Example 188, 1-(5-(6-methoxy-4-methylbenzo[d]thiazol-2-yl)-7-methylquinoxalin-2-yl)-N,N-dimethylmethanamine]
1.9 nM | COc1cnc2c(-c3nc4cc(F)c(O[C@@H](C)[C@@H](C)OC(=O)Nc5ccc(C)nc5)cc4s3)cc(C)cc2n1 [Example 405, (2R,3S)-3-((5-fluoro-2-(2-methoxy-7-methylquinoxalin-5-yl)benzo[d]thiazol-6-yl)oxy)butan-2-yl (6-methylpyridin-3-yl)carbamate]
1.2 nM | COCc1cnc2c(-c3nc4c(C)cc(OCCNS(=O)(=O)c5ccc(F)cc5)nc4s3)cc(C)cc2n1 [Example 193, 4-fluoro-N-(2-((2-(2-(methoxymethyl)-7-methylquinoxalin-5-yl)-7-methylthiazolo[5,4-b]pyridin-5-yl)oxy)ethyl)benzenesulfonamide]
0.9 nM | COc1cnc2c(-c3nc4cc(F)c(O[C@@H](C)[C@@H](C)OC(=O)Nc5ccc(CC(C)(C)O)nc5)cc4s3)cc(C)cc2n1 [Example 559, (2R,3S)-3-((5-fluoro-2-(2-methoxy-7-methylquinoxalin-5-yl)benzo[d]thiazol-6-yl)oxy)butan-2-yl (6-(2-hydroxy-2-methylpropyl)pyridin-3-yl)carbamate]
8.5 nM | COC(=O)COc1cc2sc(-c3cc(C)cc4nc(OC)cnc34)nc2c(Cl)c1F [Example 287, methyl 2-((4-chloro-5-fluoro-2-(2-methoxy-7-methylquinoxalin-5-yl)benzo[d]thiazol-6-yl)oxy)acetate]
130 nM | Cc1cc(-c2cc3c(o2)CCCC3NC(=O)OC(C)(C)C)c2ncc(OC(F)F)nc2c1 (stereo not drawn) [Example 25, tert-butyl (2-(2-(difluoromethoxy)-7-methylquinoxalin-5-yl)-4,5,6,7-tetrahydrobenzofuran-4-yl)carbamate]
890 nM | C=Cc1cnc2c(-c3cc4ccccc4o3)cc(C)cc2n1 [Example 131, 5-(benzofuran-2-yl)-7-methyl-2-vinylquinoxaline]
5.9 nM | CNC(=O)c1cc(NC(=O)O[C@H](C)COc2cc3sc(-c4cc(C)cc5nc(OC)cnc45)nc3c(Cl)c2F)ccn1 [Example 428, (R)-1-((4-chloro-5-fluoro-2-(2-methoxy-7-methylquinoxalin-5-yl)benzo[d]thiazol-6-yl)oxy)propan-2-yl (2-(methyl carbamoyl)pyridin-4-yl)carbamate]
0.4 nM | COCc1cnc2c(-c3nc4c(C)cc(OC)cc4s3)cc(C#N)cc2n1 [Example 233, 8-(6-methoxy-4-methylbenzo[d]thiazol-2-yl)-3-(methoxymethyl)quinoxaline-6-carbonitrile]
390 nM | COc1cc(C)c2nc(-c3cc(C)cc4nc(COc5ccccc5)cnc34)sc2c1 [Example 187, 6-methoxy-4-methyl-2-(7-methyl-2-(phenoxymethyl)quinoxalin-5-yl)benzo[d]thiazole]
1.1 nM | CC[C@H](COc1cc2sc(-c3cc(C)cc4nc(OC)cnc34)nc2cc1F)OC(=O)Nc1cccnc1 [Example 517, (R)-1-((5-fluoro-2-(2-methoxy-7-methylquinoxalin-5-yl)benzo[d]thiazol-6-yl)oxy)butan-2-yl pyridin-3-ylcarbamate]
21 nM | Cc1cc(-c2nc3cc(F)c(O[C@@H](C)[C@@H](C)OC(=O)Nc4cnc(C)nc4)cc3s2)c2ncc(OCCO)nc2c1 [Example 493, (2R,3S)-3-((5-fluoro-2-(2-(2-hydroxyethoxy)-7-methylquinoxalin-5-yl)benzo[d]thiazol-6-yl)oxy)butan-2-yl (2-methylpyrimidin-5-yl)carbamate]
3.7 nM | COc1cnc2c(-c3nc4cc(F)c(O[C@@H](C)[C@@H](C)OC(=O)Nc5cnc(N(C)C)nc5)cc4s3)cc(C)cc2n1 [Example 598, (2R,3S)-3-((5-fluoro-2-(2-methoxy-7-methylquinoxalin-5-yl)benzo[d]thiazol-6-yl)oxy)butan-2-yl (2-(dimethylamino)pyrimidin-5-yl)carbamate]
1 nM | CCOc1cnc2c(-c3nc4cc(F)c(OC[C@@H](C)OC(=O)Nc5cnc(C)nc5)nc4s3)cc(C)cc2n1 [Example 813, (R)-1-((2-(2-ethoxy-7-methylquinoxalin-5-yl)-6-fluorothiazolo[5,4-b]pyridin-5-yl)oxy)propan-2-yl (2-methylpyrimidin-5-yl)carbamate]
170 nM | COc1cnc2c(-c3nc4c(Cl)c(F)c(OCCOC(=O)Nc5cnc6[nH]ccc6c5)cc4s3)cc(C)cc2n1 [Example 359, 2-((4-chloro-5-fluoro-2-(2-methoxy-7-methylquinoxalin-5-yl)benzo[d]thiazol-6-yl)oxy)ethyl 1H-pyrrolo[2,3-b]pyridin-5-ylcarbamate]
